Publication PMC12203311, “Design, synthesis, in silico and in vitro evaluation of pyrrole–indole hybrids as dual tubulin and aromatase inhibitors with potent anticancer activities” (RSC Advances, 2025)

What was measured:
MOLT-4 = test: NCI60 five-dose screen; assay type: cell-based; settings: Homo sapiens, MOLT-4, leukemia; for CC50: read-out: LC50 (the source's name)
NCI-H226 = test: NCI60 five-dose screen; assay type: cell-based; settings: Homo sapiens, NCI-H226, NSC lung cancer; for CC50: read-out: LC50 (the source's name)
NCI-H322M = test: NCI60 five-dose screen; assay type: cell-based; settings: Homo sapiens, NSC lung cancer; for CC50: read-out: LC50 (the source's name)
HCC-2998 = test: NCI60 five-dose screen; assay type: cell-based; settings: Homo sapiens, HCC-2998, colon cancer; for CC50: read-out: LC50 (the source's name)
HCT-116 = test: NCI60 five-dose screen; assay type: cell-based; settings: Homo sapiens, HCT-116, colon cancer; for CC50: read-out: LC50 (the source's name)
KM12 = test: NCI60 five-dose screen; assay type: cell-based; settings: Homo sapiens, KM12, colon cancer; for CC50: read-out: LC50 (the source's name)
SW-620 = test: NCI60 five-dose screen; assay type: cell-based; settings: Homo sapiens, SW-620, colon cancer; for CC50: read-out: LC50 (the source's name)
SF-268 = test: NCI60 five-dose screen; assay type: cell-based; settings: Homo sapiens, SF-268, CNS cancer; for CC50: read-out: LC50 (the source's name)
M14 = test: NCI60 five-dose screen; assay type: cell-based; settings: Homo sapiens, M14, melanoma; for CC50: read-out: LC50 (the source's name)
MDA-MB-435 = test: NCI60 five-dose screen; assay type: cell-based, human; settings: Homo sapiens; for GI50: MDA-MB-435, melanoma
OVCAR-5 = test: NCI60 five-dose screen; assay type: cell-based; settings: Homo sapiens, OVCAR-5, ovarian cancer; for CC50: read-out: LC50 (the source's name)
786-0 = test: NCI60 five-dose screen; assay type: cell-based; settings: Homo sapiens, 786-0, renal cancer; for CC50: read-out: LC50 (the source's name)
A498 = test: NCI60 five-dose screen; assay type: cell-based; settings: Homo sapiens, A498, renal cancer; for CC50: read-out: LC50 (the source's name)
RXF 393 = test: NCI60 five-dose screen; assay type: cell-based; settings: Homo sapiens, RXF 393, renal cancer; for CC50: read-out: LC50 (the source's name)
UO-31 = test: NCI60 five-dose screen; assay type: cell-based; settings: Homo sapiens, UO-31, renal cancer
HS 578T = test: NCI60 five-dose screen; assay type: cell-based; settings: Homo sapiens, breast cancer; for CC50: read-out: LC50 (the source's name)
T-47D = test: NCI60 five-dose screen; assay type: cell-based; settings: Homo sapiens, T47D, breast cancer; for CC50: read-out: LC50 (the source's name)
MDA-MB-468 = test: NCI60 five-dose screen; assay type: cell-based; settings: Homo sapiens, MDA-MB-468, breast cancer; for CC50: read-out: LC50 (the source's name)
Human CYP19 (aromatase) = target: T1, Human CYP19 (aromatase) (Homo sapiens, UniProt P11511); test: Aromatase inhibition assay (DBF fluorometric substrate); assay type: biochemical; settings: active defined as IC50 < 12.5 µM
T1 construct: purchased GENTEST, Woburn, MA 456260; host or cells: baculovirus/insect cells
T1 sequence (P11511 1-503): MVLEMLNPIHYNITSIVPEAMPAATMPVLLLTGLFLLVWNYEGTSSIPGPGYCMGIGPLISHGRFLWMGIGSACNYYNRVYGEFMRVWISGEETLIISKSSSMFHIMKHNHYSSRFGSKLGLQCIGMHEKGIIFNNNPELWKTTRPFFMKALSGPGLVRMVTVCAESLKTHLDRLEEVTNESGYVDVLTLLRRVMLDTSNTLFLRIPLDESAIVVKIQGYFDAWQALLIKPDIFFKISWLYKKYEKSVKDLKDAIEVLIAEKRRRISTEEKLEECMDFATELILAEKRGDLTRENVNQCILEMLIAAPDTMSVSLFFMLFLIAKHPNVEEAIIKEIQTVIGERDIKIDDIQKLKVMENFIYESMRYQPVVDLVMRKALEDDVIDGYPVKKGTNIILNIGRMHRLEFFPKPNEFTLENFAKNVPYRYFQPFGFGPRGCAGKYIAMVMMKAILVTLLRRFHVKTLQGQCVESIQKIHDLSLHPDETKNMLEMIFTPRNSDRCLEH
Procedure: Aromatase enzyme was purchased from GENTEST, Woburn, MA01801, USA (Supersom human CYP19+oxidoreductase, baculovirus/insect cell-expressed; Product No. 456260). The aromatase inhibitory activity was performed using Human CYP19 enzymes and DBF as a fluorometric substrate as described by Stresser, et al.[41] with minor modifications. The mixture, containing 100 µL of cofactor/serial dilution buffer was pre-incubated in 37 °C for 10 min. […] After incubation at 37 °C for 30 min, the reaction was stopped by addition of 50 µL of 2.2 M NaOH. Fluorescence signal was monitored using an excitation wavelength of 490 nm and emission wavelength of 530 nm.

[1] = test system: T47D breast cancer cell line; test: Cytotoxicity MTT assay, T47D; assay type: cell-based, human; settings: Homo sapiens, T47D; MTT, 48 hours
Procedure: (§1) T47D (ATCC HTB-133) was purchased from Biomedia (Thailand) Co., LTD. L929 (ATCC CCL-1) was received as a gift from Prof. Tanapat Palaga, Department of Microbiology, Faculty of Science, Chulalongkorn University, Bangkok, Thailand. The cells were cultured in Dulbecco's Modified Eagle's Medium (DMEM; Gibco) supplemented with 10% fetal bovine serum (FBS; HyClone), 100 U mL^−1 penicillin and 100 µg mL^−1 streptomycin (Gibco) at 37 °C with 5% CO2.
(§2) The antiproliferative activity was determined by MTT assay. Briefly, the cells were plated into a 96-well microplate at the density of 10 000 cells per well. The cells were allowed to grow overnight before treated with the solutions of compounds in culture medium at the designated concentrations for 48 hours. The medium was then replaced with MTT solution (0.5 mg mL^−1 MTT in culture medium) and incubated for 3 hours. A 100 µL of DMSO was used to dissolve the produced formazan. Absorbance at 570 nm was then measured using a microplate reader (Varioskan™ LUX multimode microplate reader, Thermo Scientific™). Percent viability was calculated relative to the vehicle control (DMSO).

[2] = test system: L929 normal mouse fibroblast cell line; test: Cytotoxicity MTT assay, L929; assay type: cell-based; settings: 50 µM single concentration
Procedure: as §1, §2

## Cn1cccc1/C=N/NC(=O)c1[nH]c2ccc(Br)cc2c1-c1ccccc1 [Derivative 3d, (E)-5-Bromo-N′-((1-methyl-1H-pyrrol-2-yl)methylene)-3-phenyl-1H-indole-2-carbohydrazide]
MOLT-4
  GI50: 0.438 µM
  CC50: > 100 µM
NCI-H226
  GI50: 0.603 µM
  CC50: > 100 µM
NCI-H322M
  GI50: 1.98 µM
  CC50: > 100 µM
HCC-2998
  GI50: 0.402 µM
  CC50: > 100 µM
HCT-116
  GI50: 0.427 µM
  CC50: > 100 µM
KM12
  GI50: 0.357 µM
  CC50: > 100 µM
SW-620
  GI50: 0.432 µM
  CC50: > 100 µM
SF-268
  GI50: 0.547 µM
  CC50: > 100 µM
M14
  GI50: 0.324 µM
  CC50: > 100 µM
MDA-MB-435
  GI50: 0.151 µM
OVCAR-5
  GI50: 0.472 µM
  CC50: > 100 µM
786-0
  GI50: 29.4 µM
  CC50: > 100 µM
A498
  GI50: > 100 µM
  CC50: > 100 µM
RXF 393
  GI50: 0.28 µM
  CC50: > 100 µM
UO-31
  GI50: 0.33 µM
UO-31; read-out: LC50 (the source's name)
  CC50: > 100 µM
HS 578T
  GI50: 0.22 µM
  CC50: > 100 µM
T-47D
  GI50: 0.344 µM
  CC50: > 100 µM
MDA-MB-468
  GI50: 0.155 µM
  CC50: > 100 µM
Human CYP19 (aromatase)
  IC50: > 12.5 µM
  aromatase inhibition: inactivity against aromatase
[1]
  IC50: 1 ± 0.4 µM
[2]
  L929 cell survival: > 80%
  L929 toxicity at single concentration: — ^c (No toxicity observed at 50 µM single concentration (>80% cell survival).)

## Cc1[nH]c(/C=N/NC(=O)c2[nH]c3ccc(Br)cc3c2-c2ccccc2)c(C)c1[N+](=O)[O-] [Derivative 3r, (E)-5-Bromo-N′-((3,5-dimethyl-4-nitro-1H-pyrrol-2-yl)methylene)-3-phenyl-1H-indole-2-carbohydrazide]
MOLT-4
  GI50: 2.29 µM
  CC50: > 100 µM
NCI-H226
  GI50: 3.78 µM
  CC50: 40.6 µM
NCI-H322M
  GI50: 4.22 µM
  CC50: 89.5 µM
HCC-2998
  GI50: 2.41 µM
  CC50: 25.4 µM
HCT-116
  GI50: 1.98 µM
  CC50: 10.4 µM
KM12
  GI50: 1.92 µM
  CC50: 11.6 µM
SW-620
  GI50: 2.06 µM
  CC50: 19.1 µM
SF-268
  GI50: 2.37 µM
  CC50: 33.1 µM
M14
  GI50: 2.54 µM
  CC50: 36.3 µM
MDA-MB-435; MDA-MB-435, MDA-MB-435, melanoma, read-out: LC50 (the source's name)
  CC50: 17.9 µM
MDA-MB-435
  GI50: 1.77 µM
OVCAR-5
  GI50: 3.53 µM
  CC50: 41.5 µM
786-0
  GI50: 2.35 µM
  CC50: 17 µM
A498
  GI50: 2.35 µM
  CC50: 27.6 µM
RXF 393
  GI50: 1.7 µM
  CC50: 15.9 µM
HS 578T
  GI50: 2.43 µM
  CC50: 97.2 µM
T-47D
  GI50: 2.51 µM
  CC50: 33.5 µM
MDA-MB-468
  GI50: 1.94 µM
  CC50: 26.1 µM
Human CYP19 (aromatase)
  IC50: 0.2 ± 0.1 µM
[1]
  IC50: 12.3 ± 0.3 µM
[2]
  L929 cell survival: > 80%
  L929 toxicity at single concentration: — ^c (No toxicity observed at 50 µM single concentration (>80% cell survival).)
